Experimental data: patent US20140127185A1, “METHODS AND COMPOSITIONS USING NEUROPROTECTIVE STEROIDS AND THROMBOLYTIC AGENTS” (priority 2012, published 2014)

Tests used:
[1] = tested on: occludin; experiment: Occludin in H/R-treated bEND3 cells (Western blot, immunofluorescence); format: cell-based, mouse
Protocol: (§1) An immortalized mouse brain endothelial cell line (bEND 3) is purchased from American Type Culture Collection (ATCC, VA, USA) and cultured in Dulbecco's modified Eagle Medium (DMEM, ATCC) supplemented with 10% fetal bovine serum (ATCC). bEND 3 cells are seeded onto the luminal side of a filter (0.4 μm pore size; Corning, Lowell, MCA) coated with fibronectin (5 μg/ml) in 12-well plates for a transendothelial electrical resistance (TEER) test; and in 100-mm dishes for Western blot studies. Cell cultures are incubated at 37° C. in a 5%/95% mixture of CO2 and atmospheric air, and the medium is replaced every 3 days.
(§2) Peri-infarct cortical tissue is processed for protein analysis. Tissues are homogenized in T-per (Pierce, Rockford, Ill.) containing protease inhibitor cocktail (P8340, Sigma). Homogenates are centrifuged for 15 minutes at 13,000 g. 40 μg of total protein is separated on 8-12% gel and transferred onto polyvinylidene difluoride (Millipore, Mass., USA; PVDF) membranes at 300 mA for 2 hours. To measure the level of immunoglobulin, the membranes were incubated overnight at 4° C. with anti Rat IgG conjugated to biotin. bEND 3 cells are subjected to hypoxia/reperfusion for 9 hours and then lysed on ice in 100 μl of RIPA buffer. Cell lysated are boiled and then electrophoresed in 12% SDS-PAGE acrylamide gels, transferred onto PVDF membranes, and incubated for 1 hour in TBS-T (tris-buffered saline and 0.1% Tween 20) containing 5% bovine serum albumin (BSA). Membranes are then incubated overnight at 4° C. with primary antibodies against occludin (Invitrogen, Calif., USA; 1:1000), claudin-5 (Invitrogen; 1:1000), and ZO-1 (Invitrogen; 1:1000), washed in TBS-T, and incubated for 1 hour at room temperature with corresponding peroxidase-conjugated secondary antibodies (1:5000; KPL, Gaithersburg, Md.). All blots are stripped and re-incubated with β-actin antibodies (1:5000, Sigma) as a loading control. The peroxidase reaction is developed with an ECL-plus detection kit (Amersham BioScience, Piscataway, N.J.). Intensity of the bands is measured by an Image Gauge version. 4.0 program (FUJI Photo Film Co., Ltd).
The bEnd 3 cells grown to confluence on coverslips are subjected to the indicated treatments. […]
(§3) To mimic ischemia-like conditions in vitro, immortalized mouse brain endothelial (bEND3) cells were exposed to 6 hours of hypoxia and 3 hours of reoxygeneation with or without the administration of tPA at a dose of 20 μ/ml. […] BBB integrity was evaluated by transendothelial membrane electrical resistance (TEER) measurement, MMP-9 activity, and the alteration of tight junction proteins following in vitro H/R injury.

[2] = tested on: Male Sprague Dawley (SD) rats subjected to focal ischemia; experiment: Focal ischemia with delayed tPA in rats: cerebral hemorrhage, infarct volume, brain swelling; format: in vivo, rat; conditions: 24 hours post-stroke; tPA 5 mg/kg via femoral vein at 4.5 hours; progesterone i.p. at 2 hours
Protocol: 2,3,5-tripheynltetrazolium (TTC)-stained brain sections are used for quantification of intracerebral hemorrhage with a spectrophotometric hemoglobin assay. Samples typically are collected 19.5 hours after injury. The brain tissue is homogenized in 2 ml 0.05 M tris buffered saline and tween (TBS-T) followed by a 30-minute centrifugation (12,000 rpm) and re-centrifugation for 15-minutes at 10,000 rpm. Then, 200 μl reagent (QuantiChrom™ Hemoglobin Assay Kit; BioAssay Systems) is added to a 50 μl supernatant. Optical density is measured at 405 nm with a spectrophotometer.
Brain edema/swelling are estimated by measuring the hemispheric areas of each 2-mm thick brain slices using Image J software (NIH, Bethesda, […]., USA), typically 24 hours after MCAO. Edema formation is calculated as hemispheric enlargement and expressed as a percentage of the normal areas in the contralateral hemisphere.
Male Sprague Dawley (SD) rats were subjected to focal ischemia, reperfused at 4.5 hours and then treated with tPA (5 mg/kg body weight; via femoral vein) at 4.5 hours or by combined progesterone (given by intraperitoneal injection at 2 hours) plus tPA (given at 4.5 hours). Rats were killed at 24 hours after ischemia, brains were perfused with saline, and coronal sections (2 mm thick) were stained with 2,3,5-triphenyltetrazolium chloride to quantify infarct volumes. […]

[3] = tested on: claudin-5; experiment: Claudin-5 in H/R-treated bEND3 cells (Western blot); format: cell-based, mouse; conditions: tPA with H/R
Protocol: as §1
Peri-infarct cortical tissue is processed for protein analysis. Tissues are homogenized in T-per (Pierce, Rockford, Ill.) containing protease inhibitor cocktail (P8340, Sigma). Homogenates are centrifuged for 15 minutes at 13,000 g. […] Intensity of the bands is measured by an Image Gauge version. […]
as §3

[4] = tested on: claudin-5; experiment: Tight junction protein Western blot in vivo (ischemic cortices): claudin-5; design: species or system rat; conditions: 24 hours after ischemia, compared to stroke without tPA / with tPA
Protocol: as §2, with “The peroxidase reaction is developed with an ECL-plus detection kit (Amersham BioScience, Piscataway, N.J.).” left out, “4.0 program (FUJI Photo Film Co., Ltd).” left out

## tPA: serum protease acting specifically on serum plasminogen; also known as alteplase, available commercially as Activase
[1]; bEND3 cells exposed to H/R and tPA for 9 hours, progesterone pretreatment
  Detected levels of occludin (immunofluorescence): reduced
[1]; bEND3 cells, tPA with H/R
  Expression of occludin (Western blot): markedly decreased
[2]
  Hemorrhage volume (hemoglobin in perfused brain): induced cerebral hemorrhage
[3]
  Expression of 23-kDa claudin-5 (Western blot): markedly decreased
[4]
  Lower molecular weight 17-kDa claudin-5 fragments: increase
